Consider three compounds from ChEMBL document CHEMBL3046741, “Initial activity and persistence of insecticides for the control of bollworms (Lepidoptera: Noctuidae) in cotton crops” (2009).

Holding throughout (format): functional
One experiment relates to Diparopsis watersi. Nature of the experiment: Insecticidal activity against L3 to L4 larvae of Diparopsis watersi assessed as mortality after 48 hr by leaf disc assay.
In experiment [1] the test system is Helicoverpa armigera. Nature of the experiment: Insecticidal activity against Helicoverpa armigera assessed as time above which insecticide kills less than 50% of larvae by measuring index of persistence in presence of 24 mm of simulated rain applied at three days interval.
Experiment [2] deals with Helicoverpa armigera. Nature of the experiment: Insecticidal activity against Helicoverpa armigera assessed as time above which insecticide kills less than 50% of larvae by measuring index of persistence under in absence of rain.
In experiment [3] the test system is Helicoverpa armigera. Nature of the experiment: Insecticidal activity against L5 larvae of Helicoverpa armigera assessed as mortality after 48 hr by leaf disk assay.
Experiment [4] relates to Helicoverpa armigera. Nature of the experiment: Insecticidal activity against L4 larvae of Helicoverpa armigera assessed as mortality after 48 hr by leaf disk assay.
Experiment [5] concerns Helicoverpa armigera. The experiment in a line: Insecticidal activity against L3 larvae of Helicoverpa armigera assessed as mortality after 48 hr by leaf disk assay.
Experiment [6] relates to Helicoverpa armigera. Nature of the experiment: Insecticidal activity against L2 larvae of Helicoverpa armigera assessed as mortality after 48 hr by leaf disk assay.
In experiment [7] the test system is Helicoverpa armigera. The experiment in a line: Insecticidal activity against L1 larvae of Helicoverpa armigera assessed as mortality after 48 hr by leaf disk assay.
The subject of a further experiment is Earias. The experiment in a line: Insecticidal activity against L3 to L4 larvae of Earias spp. assessed as mortality after 48 hr by leaf disk assay.

The mortality is the percentage killed. As to `O=S1OCC2C(CO1)C1(Cl)C(Cl)=C(Cl)C2(Cl)C1(Cl)Cl` (configuration not stated) [ENDOSULFAN], the mortality is 82.8% with Diparopsis watersi; 92.5% in the experiment on Helicoverpa armigera [3]; 89.5% in the experiment with Helicoverpa armigera [4]; 94.1% with Helicoverpa armigera [5]; 91.5% in the experiment with Helicoverpa armigera [6]; 93.3% in the experiment with Helicoverpa armigera [7]. The mortality in the experiment on Earias is on record as 99.4%. In addition, the Time is 5.2 days in the experiment on Helicoverpa armigera [1] and 8.7 days in the experiment with Helicoverpa armigera [2].
With `COC(=O)N(C(=O)N1CO[C@@]2(C(=O)OC)Cc3cc(Cl)ccc3C2=N1)c1ccc(OC(F)(F)F)cc1` [INDOXACARB], the mortality was 77.7% with Diparopsis watersi; 94.5% in the experiment with Helicoverpa armigera [3]; 90.9% in the experiment with Helicoverpa armigera [4]; 89.3% in the experiment with Helicoverpa armigera [5]; 78.9% in the experiment on Helicoverpa armigera [6]; 86.2% in the experiment on Helicoverpa armigera [7]. In addition, in the experiment with Earias, the mortality came out at 90.8%. Also, the Time was 3.7 days with Helicoverpa armigera [1] and 8.4 days in the experiment on Helicoverpa armigera [2].
Turning to `CS/C(C)=N\OC(=O)N(C)SN(C)C(=O)O/N=C(\C)SC` [THIODICARB], the mortality came to 99.3% in the experiment with Diparopsis watersi; 96.5% with Helicoverpa armigera [3]; 97.5% in the experiment on Helicoverpa armigera [4]; 94.1% in the experiment with Helicoverpa armigera [5]; 99.2% with Helicoverpa armigera [6]; 98.6% in the experiment with Helicoverpa armigera [7]. Further, the mortality with Earias is reported as 100%. Moreover, the Time in the experiment with Helicoverpa armigera [1] was 17.2 days; in the experiment with Helicoverpa armigera [2], 27 days.
